Molecules are shown by their SMILES.

The experiment concerns the target T1, guinea pig cortex NK3 receptor (Cavia porcellus, UniProt P30098).
T1 construct: guinea pig cortex NK3 receptor; from tissue; host or cells: guinea pig (brain) cortex, prepared by the cited method of Guard et al., Br. J. Pharmacol. (1990), 99, 767
T1 sequence (P30098 1-440): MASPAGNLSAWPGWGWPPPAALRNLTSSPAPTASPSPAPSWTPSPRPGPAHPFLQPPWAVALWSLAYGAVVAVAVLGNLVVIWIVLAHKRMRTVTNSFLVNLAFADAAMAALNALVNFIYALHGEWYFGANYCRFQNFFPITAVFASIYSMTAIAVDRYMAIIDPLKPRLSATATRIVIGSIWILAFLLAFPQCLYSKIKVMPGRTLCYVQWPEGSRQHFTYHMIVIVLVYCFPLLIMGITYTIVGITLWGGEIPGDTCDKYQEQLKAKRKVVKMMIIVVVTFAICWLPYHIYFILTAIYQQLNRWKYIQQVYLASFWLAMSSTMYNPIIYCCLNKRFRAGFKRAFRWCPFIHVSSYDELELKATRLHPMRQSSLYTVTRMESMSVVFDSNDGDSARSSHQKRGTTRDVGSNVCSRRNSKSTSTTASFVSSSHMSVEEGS
The experiment is described as follows: in vitro affinity for the guinea pig cortex NK3 receptor (displacement of [^3 H] senktide). Particulars: displacement of [^3 H] senktide at guinea pig cortex NK3 receptor. It is filed as binding. On the procedure: The affinity of the compounds of formula (I) and their salts for the NK3 receptor can be tested in vitro by testing their ability to displace [^3 H] senktide at the guinea pig cortex NK3 receptor. The receptors are prepared by the method described by S. Guard, et al, in Br.J.Pharmacol. (1990), 99, 767.
The data below illustrates the in vitro affinity of substances of the invention for the guinea pig cortex NK3 receptor, which assays were carried out according to the method mentioned earlier on page 15.
The IC50 is the concentration needed to halve the response being measured. Low values mean greater potency in that assay, high ones weaker potency in that assay. `CS(=O)(=O)N(c1ccccc1)C1CN(CCC[C@]2(c3ccc(Cl)c(Cl)c3)CCCN(C(=O)c3ccccc3)C2)C1` [Example 13] showed an IC50 of 11.2 nM. That is a double-digit nanomolar value.
To `CS(=O)(=O)N1CCN(C2CN(CCC[C@]3(c4ccc(Cl)c(Cl)c4)CCCN(C(=O)c4ccccc4)C3)C2)CC1` [Example 3, (+)-3(R)-1-Benzoyl-3-(3,4-dichlorophenyl)-3-(3-[3-(4-methanesulphonylpiperazin-1-yl)azetidin-1-yl]propyl)piperidine] belongs 1.58 nM.
The figure for `CS(=O)(=O)N1CCN(C2CN(CCC[C@]3(c4ccc(Cl)c(Cl)c4)CCCN(C(=O)c4ccc(F)c(F)c4)C3)C2)CC1` [Example 17, (+)-3(R)-3-(3,4-Dichlorophenyl)-1-(3,4-difluorobenzoyl)-3-(3-[3-(4-methanesulphonylpiperazin-1-yl)azetidin-1-yl]propyl)piperidine] is 3.98 nM.
